From US9980943B2, “Methods of treating muscular dystrophy” (BOARD OF REGENTS OF THE NEVADA SYSTEM OF HIGHER EDUCATION, …, priority 2013, dated 2018)

What was measured:
Type in all cases: cell-based, mouse
[1] = test system: α7 integrin (LacZ reporter in α7βgal+/− myoblasts); assay: Myoblast α7+/LacZ integrin FDG assay (Burkin assay in myoblasts, 96-well); conditions: α7+/LacZ myoblasts, 96-well
[2] = test system: α7 integrin (LacZ reporter in α7+/LacZ myotubes); assay: Myotube α7 integrin FDG assay (Burkin assay in myotubes, 96-well); conditions: myotubes
[3] = test system: β-galactosidase in CMV-LacZ C2C12 myoblasts; assay: CMV-LacZ secondary screen in C2C12 myoblasts (β-Gal stabilizing assay); conditions: CMV-LacZ C2C12 myoblasts
Method in brief: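 C2C12 myoblasts stably carrying a linearized CMV-driven LacZ construct, clone chosen by β-gal level in the myoblast FDG assay. Compounds tested in 96-well dose-response at 0.5, 1, 5, 10, 20 and 40 μM, N=2 replicates per point, to detect β-gal stabilization.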

[4] = test system: β-galactosidase in CMV-LacZ C2C12 myotubes; assay: CMV-LacZ secondary screen in C2C12 myotubes (β-Gal stabilizing assay); conditions: C2C12 CMV-LacZ myotubes, fold relative to DMSO
Method in brief: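 β-Gal level was the read-out, measured in a clonal C2C12 line expressing LacZ from a CMV promoter. Dose-response curves used six concentrations, 0.5 μM up to 40 μM, with duplicate points.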

Structure (SMILES)	Burkin Assay in Myoblasts, signal relative to DMSO ([1]; 0.5 uM)	Burkin Assay in Myoblasts, signal relative to DMSO ([1]; 1 uM)	Burkin Assay in Myoblasts, signal relative to DMSO ([1]; 5 uM)	Burkin Assay in Myoblasts, signal relative to DMSO ([1]; 10 uM)	Burkin Assay in Myoblasts, signal relative to DMSO ([1]; 20 uM)	Burkin Assay in Myoblasts, signal relative to DMSO ([1]; 40 uM)	Burkin Assay in Myotubes, α7 integrin LacZ reporter signal relative to DMSO ([2]; 0.5 uM)	Burkin Assay in Myotubes, α7 integrin LacZ reporter signal relative to DMSO ([2]; 1 uM)	Burkin Assay in Myotubes, α7 integrin LacZ reporter signal relative to DMSO ([2]; 5 uM)	Burkin Assay in Myotubes, α7 integrin LacZ reporter signal relative to DMSO ([2]; 10 uM)	Burkin Assay in Myotubes, α7 integrin LacZ reporter signal relative to DMSO ([2]; 20 uM)	Burkin Assay in Myotubes, α7 integrin LacZ reporter signal relative to DMSO ([2]; 40 uM)	CMV-LACZ in Myoblasts (β-galactosidase activity relative to DMSO) ([3]; 0.5 uM)	CMV-LACZ in Myoblasts (β-galactosidase activity relative to DMSO) ([3]; 1 uM)	CMV-LACZ in Myoblasts (β-galactosidase activity relative to DMSO) ([3]; 5 uM)	CMV-LACZ in Myoblasts (β-galactosidase activity relative to DMSO) ([3]; 10 uM)	CMV-LACZ in Myoblasts (β-galactosidase activity relative to DMSO) ([3]; 20 uM)	CMV-LACZ in Myoblasts (β-galactosidase activity relative to DMSO) ([3]; 40 uM)	CMV-LACZ in Myotubes, signal relative to DMSO ([4]; 0.5 uM)	CMV-LACZ in Myotubes, signal relative to DMSO ([4]; 1 uM)	other results
COC(=O)c1ccccc1NC(=O)CSc1nc(O)c(-c2ccccc2)c(=O)[nH]1 [MLS000621451-01]	1.065	1.018	1.066	1.114	1.0713	1.088	0.9471	0.8932	0.9254	1.071	0.8327	1.024	1.0388	1.1579	0.9255	1.3023	1.2493	1.1926	1.1114	0.9295	CMV-LACZ in Myotubes, signal relative to DMSO ([4]; 5 uM): 1.0177; CMV-LACZ in Myotubes, signal relative to DMSO ([4]; 10 uM): 1.1398; CMV-LACZ in Myotubes, signal relative to DMSO ([4]; 20 uM): 0.9853; CMV-LACZ in Myotubes, signal relative to DMSO ([4]; 40 uM): 0.9695
Cn1c(O)c(C(C#N)=C2N=c3ccccc3=N2)c2ccccc21 [MLS000536064-01]	0.8028	0.804	0.7333	1.047	0.544	0.4501	0.9046	0.9555	0.9539	1.131	0.7642	0.7073	0.9105	0.7412	2.0402	1.3388	2.5396	2.4896	0.9705	1.0389	CMV-LACZ in Myotubes, signal relative to DMSO ([4]; 5 uM): 0.8894; CMV-LACZ in Myotubes, signal relative to DMSO ([4]; 10 uM): 1.1027; CMV-LACZ in Myotubes, signal relative to DMSO ([4]; 20 uM): 1.2344; CMV-LACZ in Myotubes, signal relative to DMSO ([4]; 40 uM): 1.0233
CC1(C)Cc2c(c(N3CCOCC3)nc3sc(C(=O)Nc4ccccc4)c(N)c23)CO1 [MLS001075922-01]	1.2085	1.292	0.6039	0.2869	0.5678	0.6464	1.292	1.143	0.6556	0.629	1.067	0.8243	0.9434	1.3028	1.6332	1.2361	0.9881	1.3037	1.0222	1.0533	CMV-LACZ in Myotubes, signal relative to DMSO ([4]; 5 uM): 1.2947; CMV-LACZ in Myotubes, signal relative to DMSO ([4]; 10 uM): 1.2173; CMV-LACZ in Myotubes, signal relative to DMSO ([4]; 20 uM): 1.0282; CMV-LACZ in Myotubes, signal relative to DMSO ([4]; 40 uM): 0.8388
O=c1[nH]c(CN2CCCCC2)nc2c1C1(CCCCC1)Cc1ccccc1-2 [MLS000028160-01]	1.037	0.9873	0.9805	0.8521	1.107	0.8535	1.085	1.102	0.9162	0.9598	0.9049	0.8112	1.0663	0.9029	0.9378	1.2759	0.8967	0.8600	1.0524	1.0362	CMV-LACZ in Myotubes, signal relative to DMSO ([4]; 5 uM): 1.0348; CMV-LACZ in Myotubes, signal relative to DMSO ([4]; 10 uM): 0.9249; CMV-LACZ in Myotubes, signal relative to DMSO ([4]; 20 uM): 1.0471; CMV-LACZ in Myotubes, signal relative to DMSO ([4]; 40 uM): 1.1976
O=c1c2cc(-c3ccccc3)sc2nc2n1N=C(c1ccccc1)CS2 [MLS000858981-01]	0.953	0.999	1.186	1.01	1.0113	1.005	1.027	0.8837	1.055	0.8922	0.8526	0.8173	0.9229	0.9696	1.1687	0.9009	0.9985	0.9696	1.0257	0.8419	CMV-LACZ in Myotubes, signal relative to DMSO ([4]; 5 uM): 1.0786; CMV-LACZ in Myotubes, signal relative to DMSO ([4]; 10 uM): 0.9781; CMV-LACZ in Myotubes, signal relative to DMSO ([4]; 20 uM): 1.0421; CMV-LACZ in Myotubes, signal relative to DMSO ([4]; 40 uM): 1.0000
